30 compounds from patent US20100144733A1, “Compounds, compositions and methods comprising heteroaromatic derivatives” (Institute for OneWorld Health, priority 2008, published 2010) can be followed below.

For one assay, the target named is T1, CHO-CFTR cell line (Homo sapiens, UniProt P13569).
T1 construct: expressed in transfected cells; host or cells: CHO (CHO-CFTR cell line)
The experiment in a line: CHO-CFTR assay (FLIPR assay, same conditions as the T84 assay). It is filed as cell-based. To be noted: imidazole and triazole-containing compounds.

The target of the next assay is T2, CFTR (Homo sapiens, UniProt P13569).
T2 construct: endogenous in cells; host or cells: T84 human colonic cells (ECACC)
T2 sequence (P13569 whole entry): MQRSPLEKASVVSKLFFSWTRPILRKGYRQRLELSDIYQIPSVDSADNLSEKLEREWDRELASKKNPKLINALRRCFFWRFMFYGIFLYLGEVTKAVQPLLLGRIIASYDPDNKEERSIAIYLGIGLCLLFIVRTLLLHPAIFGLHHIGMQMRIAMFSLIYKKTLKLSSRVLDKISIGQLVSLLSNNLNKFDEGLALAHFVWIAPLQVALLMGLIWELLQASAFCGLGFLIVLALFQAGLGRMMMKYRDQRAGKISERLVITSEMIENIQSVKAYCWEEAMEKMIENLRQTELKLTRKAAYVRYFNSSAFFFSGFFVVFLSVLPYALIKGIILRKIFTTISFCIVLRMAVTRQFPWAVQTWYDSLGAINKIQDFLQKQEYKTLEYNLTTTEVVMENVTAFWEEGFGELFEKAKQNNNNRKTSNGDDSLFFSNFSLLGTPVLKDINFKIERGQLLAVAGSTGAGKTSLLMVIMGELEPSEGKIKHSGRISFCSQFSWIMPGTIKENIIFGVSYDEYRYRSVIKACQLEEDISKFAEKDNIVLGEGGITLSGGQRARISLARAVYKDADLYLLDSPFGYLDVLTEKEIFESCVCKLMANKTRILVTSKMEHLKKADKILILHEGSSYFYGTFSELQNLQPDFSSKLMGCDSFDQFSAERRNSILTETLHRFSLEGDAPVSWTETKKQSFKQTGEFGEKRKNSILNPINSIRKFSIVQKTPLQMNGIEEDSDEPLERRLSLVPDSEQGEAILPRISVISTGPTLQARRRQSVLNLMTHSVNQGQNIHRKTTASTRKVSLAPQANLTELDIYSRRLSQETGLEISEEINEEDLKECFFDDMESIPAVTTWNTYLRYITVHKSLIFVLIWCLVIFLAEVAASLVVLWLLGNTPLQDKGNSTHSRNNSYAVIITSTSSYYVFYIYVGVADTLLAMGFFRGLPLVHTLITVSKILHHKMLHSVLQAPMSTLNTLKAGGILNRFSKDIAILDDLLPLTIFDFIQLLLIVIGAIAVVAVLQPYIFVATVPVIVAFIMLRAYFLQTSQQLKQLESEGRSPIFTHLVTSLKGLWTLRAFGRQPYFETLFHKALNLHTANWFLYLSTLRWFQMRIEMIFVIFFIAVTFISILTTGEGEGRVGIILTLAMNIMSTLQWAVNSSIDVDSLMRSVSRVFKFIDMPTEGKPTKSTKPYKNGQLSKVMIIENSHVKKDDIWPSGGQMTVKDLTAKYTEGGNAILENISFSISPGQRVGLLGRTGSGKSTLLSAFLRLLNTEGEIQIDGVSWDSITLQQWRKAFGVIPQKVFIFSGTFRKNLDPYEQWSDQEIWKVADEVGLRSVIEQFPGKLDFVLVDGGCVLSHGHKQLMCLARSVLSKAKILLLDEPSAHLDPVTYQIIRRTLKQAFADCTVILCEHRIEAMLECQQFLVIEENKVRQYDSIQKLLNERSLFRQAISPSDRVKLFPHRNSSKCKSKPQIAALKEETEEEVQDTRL
Kind of assay: T84 assay (FLIPR membrane potential dye, forskolin/IBMX-stimulated CFTR channel activity). Particulars: imidazole and triazole-containing compounds (Tables 13, 14, 14′), read-out: IC50 (μM) (T84 assay). The class given is cell-based. In short, it runs like this: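 Fluorescence from a membrane potential dye in T84 monolayers (HBSS with 10 mM Hepes) is followed each second for 150 s. Cells are exposed to test compound during the 45 min dye loading, then challenged with forskolin (10 μM) and IBMX (100 μM) to open CFTR. Inhibitors suppress the depolarization-driven fluorescence increase.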

T1 sequence (P13569 whole entry): as above

The term IC50 denotes the concentration needed to halve the response being measured. Turning to `Oc1c(Cl)cc(-n2cnc(C(O)(c3cc(F)cc(Cl)c3)c3cc(F)cc(Cl)c3)n2)cc1Cl` [57i, 4-(3-(bis(3-chloro-5-fluorophenyl)(hydroxy)methyl)-1H-1,2,4-triazol-1-yl)-2,6-dichlorophenol], the values for the IC50 at CHO-CFTR cell line and at CFTR were 3.88 µM and 14.7 µM, respectively.
Take `O=C(NCc1ccc(Oc2cccc(N3CCCC3)c2)cc1)c1ncn(-c2cc(Cl)c(O)c(Cl)c2)n1` [69i, 1-(3,5-dichloro-4-hydroxyphenyl)-N-(4-(3-(pyrrolidin-1-yl)phenoxy)benzyl)-1H-1,2,4-triazole-3-carboxamide]: the IC50 turned out to be 5.99 µM at CHO-CFTR cell line and 4.3 µM at CFTR.
In the case of `O=C(NC(c1ccccc1)c1ccccc1)c1ncn(-c2cc(Cl)c(O)c(Cl)c2)n1` [2i, N-benzhydryl-1-(3,5-dichloro-4-hydroxyphenyl)-1H-1,2,4-triazole-3-carboxamide], the IC50 is 6.45 µM on CHO-CFTR cell line and 4.88 µM on CFTR.
Consider `O=C(NCc1ccc(Oc2ccc(CO)cc2)cc1)c1ncn(-c2cc(Cl)c(O)c(Cl)c2)n1` [76i, 1-(3,5-dichloro-4-hydroxyphenyl)-N-(4-(4-(hydroxymethyl)phenoxy)benzyl)-1H-1,2,4-triazole-3-carboxamide], for which the IC50 on CHO-CFTR cell line came out at 12.2 µM; at CFTR, 11.3 µM.
The matching figures for `CC(C)c1ccc(CN(Cc2ccccc2)C(=O)c2ncn(-c3cc(Cl)c(O)c(Cl)c3)n2)cc1` [81i, N-benzyl-1-(3,5-dichloro-4-hydroxyphenyl)-N-(4-isopropylbenzyl)-1H-1,2,4-triazole-3-carboxamide]: 16.5 µM and 1.26 µM.
Regarding `CCN(Cc1ccc(C(C)C)cc1)C(=O)c1ncn(-c2cc(Cl)c(O)c(Cl)c2)n1` [87i, 1-(3,5-dichloro-4-hydroxyphenyl)-N-ethyl-N-(4-isopropylbenzyl)-1H-1,2,4-triazole-3-carboxamide], the values for the IC50 on CHO-CFTR cell line and on CFTR were 20.6 µM and 1.23 µM, respectively.
In the case of `CC(C)(C)CCN(Cc1ccc(Cl)c(Cl)c1)C(=O)c1ncn(-c2cc(Cl)c(O)c(Cl)c2)n1` [107i, 1-(3,5-dichloro-4-hydroxyphenyl)-N-(3,4-dichlorobenzyl)-N-(3,3-dimethylbutyl)-1H-1,2,4-triazole-3-carboxamide], the IC50 was found to be 26.9 µM at CHO-CFTR cell line and 1.73 µM on CFTR.
In the case of `CON(Cc1ccc(Oc2ccccc2)cc1)C(=O)c1ncn(-c2cc(Cl)c(O)c(Cl)c2)n1` [129i, 1-(3,5-dichloro-4-hydroxyphenyl)-N-methoxy-N-(4-phenoxybenzyl)-1H-1,2,4-triazole-3-carboxamide], the IC50 at CHO-CFTR cell line turned out to be 22.5 µM; on CFTR it was 2.61 µM.
On to `O=C(NCc1ccc(Cl)c(Cl)c1)c1ncn(-c2cc(Cl)c(O)c(Cl)c2)n1` [37i, 1-(3,5-dichloro-4-hydroxyphenyl)-N-(3,4-dichlorobenzyl)-1H-1,2,4-triazole-3-carboxamide], for which the IC50 at CHO-CFTR cell line worked out at 5.71 µM; on CFTR, 2.67 µM.
The matching figures for `CC(C)(C)c1ccc(CNC(=O)c2ncn(-c3cc(Cl)c(O)c(Cl)c3)n2)cc1` [34i, N-(4-tert-butylbenzyl)-1-(3,5-dichloro-4-hydroxyphenyl)-1H-1,2,4-triazole-3-carboxamide]: 4.72 µM and 1.18 µM.
Taken in the same sequence, the figures for `O=C(c1ncn(-c2cc(Cl)c(O)c(Cl)c2)n1)N1CCN(c2cccc(C(F)(F)F)c2)CC1` [4i, (1-(3,5-dichloro-4-hydroxyphenyl)-1H-1,2,4-triazol-3-yl)(4(3-(trifluoromethyl)phenyl)piperazin-1-yl)methanone] were 14.3 µM and 8.15 µM.
Consider `CC(C)N(Cc1ccc(Oc2ccccc2)cc1)C(=O)c1ncn(-c2cc(Cl)c(O)c(Cl)c2)n1` [95i, 1-(3,5-dichloro-4-hydroxyphenyl)-N-isopropyl-N-(4-phenoxybenzyl)-1H-1,2,4-triazole-3-carboxamide], for which the IC50 against CHO-CFTR cell line amounted to 18.9 µM; at CFTR it was 2.63 µM.
The matching figures for `O=C(c1cn(-c2cc(Br)c(O)c(Br)c2)cn1)N1CCC(Cc2ccccc2)CC1` [19i, (4-benzylpiperidin-1-yl)(1-(3,5-dibromo-4-hydroxyphenyl)-1H-imidazol-4-yl)methanone]: 7.5 µM and 17.4 µM.
On to `COCCOCCOCCOCCN(Cc1ccc(Oc2ccccc2)cc1)C(=O)c1ncn(-c2cc(Cl)c(O)c(Cl)c2)n1` [112i, 1-(3,5-dichloro-4-hydroxyphenyl)-N-(4-phenoxybenzyl)-N-(2,5,8,11-tetraoxatridecan-13-yl)-1H-1,2,4-triazole-3-carboxamide], for which the IC50 against CHO-CFTR cell line worked out at 26.1 µM; at CFTR it was 12.5 µM.
Consider `O=C(NCc1cccc(OC(F)(F)F)c1)c1cn(-c2cc(Br)c(O)c(Br)c2)cn1` [20i, 1-(3,5-Dibromo-4-hydroxyphenyl)-N-(3-(trifluoromethoxy)benzyl)-1H-imidazole-4-carboxamide], for which the IC50 at CHO-CFTR cell line came to 2.31 µM; at CFTR, 17.6 µM.
Turning to `O=C(NCc1cccc(OC(F)(F)F)c1)c1ncn(-c2cc(Cl)c(O)c(Cl)c2)n1` [3i, 1-(3,5-dichloro-4-hydroxyphenyl)-N-(3-(trifluoromethoxy)benzyl)-1H-1,2,4-triazole-3-carboxamide], the IC50 came to 3.37 µM on CHO-CFTR cell line and 7.14 µM on CFTR.
`CC(C)N(Cc1ccc(Cl)c(Cl)c1)C(=O)c1ncn(-c2cc(Cl)c(O)c(Cl)c2)n1` [98i, 1-(3,5-dichloro-4-hydroxyphenyl)-N-(3,4-dichlorobenzyl)-N-isopropyl-1H-1,2,4-triazole-3-carboxamide]: the IC50 at CHO-CFTR cell line stood at 8.39 µM; on CFTR it was 8.13 µM.
`O=C(NCc1ccc(Oc2ccc(F)c(C(F)(F)F)c2)cc1)c1ncn(-c2cc(Cl)c(O)c(Cl)c2)n1` [67i, 1-(3,5-dichloro-4-hydroxyphenyl)-N-(4-(4-fluoro-3-(trifluoromethyl)phenoxy)benzyl)-1H-1,2,4-triazole-3-carboxamide]: the IC50 turned out to be 14.7 µM on CHO-CFTR cell line and 6.4 µM on CFTR.
As for `COCCOCCOCCN(Cc1ccc(Oc2ccccc2)cc1)C(=O)c1ncn(-c2cc(Cl)c(O)c(Cl)c2)n1` [119i, 1-(3,5-dichloro-4-hydroxyphenyl)-N-(2-(2-(2-methoxyethoxy)ethoxy)ethyl)-N-(4-phenoxybenzyl)-1H-1,2,4-triazole-3-carboxamide], the concentration for half-maximal inhibition (IC50) at CHO-CFTR cell line amounted to 11.5 µM; on CFTR it was 5.11 µM.
Regarding `O=C(NCc1ccc(Oc2ccc(OCc3ccccc3)c(F)c2)cc1)c1ncn(-c2cc(Cl)c(O)c(Cl)c2)n1` [71i, N-(4-(4-(benzyloxy)-3-fluorophenoxy)benzyl)-1-(3,5-dichloro-4-hydroxyphenyl)-1H-1,2,4-triazole-3-carboxamide], the IC50 on CHO-CFTR cell line was determined as 31 µM; at CFTR, 8.06 µM.
Take `O=C(c1ncn(-c2cc(Cl)c(O)c(Cl)c2)n1)N(Cc1cccnc1)Cc1ccc(Cl)c(Cl)c1` [109i, 1-(3,5-dichloro-4-hydroxyphenyl)-N-(3,4-dichlorobenzyl)-N-(pyridin-3-ylmethyl)-1H-1,2,4-triazole-3-carboxamide]: the IC50 against CHO-CFTR cell line is 10.2 µM; on CFTR, 3.06 µM.
Turning to `CC(C)(C)C(=O)C(Cc1cccc(C(F)(F)F)c1)NC(=O)c1ncn(-c2cc(Cl)c(O)c(Cl)c2)n1` (stereo not drawn) [132i, 1-(3,5-dichloro-4-hydroxyphenyl)-N-(4,4-dimethyl-3-oxo-1-(3-(trifluoromethyl)phenyl)pentan-2-yl)-1H-1,2,4-triazole-3-carboxamide], the IC50 on CHO-CFTR cell line turned out to be 26.5 µM; at CFTR it was 3.87 µM.
Regarding `O=C(NCc1ccc(Oc2cc(Cl)c(OCc3ccccc3)c(Cl)c2)cc1)c1ncn(-c2cc(Cl)c(O)c(Cl)c2)n1` [73i], the IC50 turned out to be 17 µM on CHO-CFTR cell line and 30.7 µM on CFTR.
Turning to `O=C(NCc1cc(C(F)(F)F)ccc1F)c1ncn(-c2cc(Cl)c(O)c(Cl)c2)n1` [40i, 1-(3,5-dichloro-4-hydroxyphenyl)-N-(2-fluoro-5-(trifluoromethyl)benzyl)-1H-1,2,4-triazole-3-carboxamide], the figures for the IC50 against CHO-CFTR cell line and at CFTR were 28.6 µM and 2.86 µM, respectively.
On to `CC(C)(C)c1ccc(Oc2ccc(CNC(=O)c3ncn(-c4cc(Cl)c(O)c(Cl)c4)n3)cc2)cc1` [68i, N-(4-(4-tert-butylphenoxy)benzyl)-1-(3,5-dichloro-4-hydroxyphenyl)-1H-1,2,4-triazole-3-carboxamide], for which the IC50 at CHO-CFTR cell line was determined as 19.1 µM; at CFTR, 5.34 µM.
With `CC(C)c1ccc(CN(C(=O)c2ncn(-c3cc(Cl)c(O)c(Cl)c3)n2)C(C)C)cc1` [96i, 1-(3,5-dichloro-4-hydroxyphenyl)-N-isopropyl-N-(4-isopropylbenzyl)-1H-1,2,4-triazole-3-carboxamide], the figures for the IC50 at CHO-CFTR cell line and at CFTR were 22.1 µM and 2.53 µM, respectively.
Consider `O=C(NCc1ccc(Oc2ccccc2)cc1)c1ncn(-c2cc(Cl)c(O)c(Cl)c2)n1` [49i, 1-(3,5-dichloro-4-hydroxyphenyl)-N-(4-phenoxybenzyl)-1H-1,2,4-triazole-3-carboxamide], for which the IC50 against CHO-CFTR cell line was 0.45 µM; at CFTR, 1.57 µM.
Turning to `CON(Cc1cccc(OC(F)(F)F)c1)C(=O)c1ncn(-c2cc(Cl)c(O)c(Cl)c2)n1` [125i, 1-(3,5-dichloro-4-hydroxyphenyl)-N-methoxy-N-(3-(trifluoromethoxy)benzyl)-1H-1,2,4-triazole-3-carboxamide], the IC50 against CHO-CFTR cell line is 9.67 µM; at CFTR it was 3.44 µM.
Regarding `O=C(NCc1cc(F)cc(C(F)(F)F)c1)c1ncn(-c2cc(Cl)c(O)c(Cl)c2)n1` [24i, 1-(3,5-dichloro-4-hydroxyphenyl)-N-(3-fluoro-5-(trifluoromethyl)benzyl)-1H-1,2,4-triazole-3-carboxamide], the IC50 against CHO-CFTR cell line is 15.2 µM; at CFTR, 4.93 µM.
Consider `CC(C)c1ccc(CC(NC(=O)c2ncn(-c3cc(Cl)c(O)c(Cl)c3)n2)C(=O)C(C)(C)C)cc1` (stereo not drawn) [134i, 1-(3,5-dichloro-4-hydroxyphenyl)-N-(1-(4-isopropylphenyl)-4,4-dimethyl-3-oxopentan-2-yl)-1H-1,2,4-triazole-3-carboxamide], for which the IC50 on CHO-CFTR cell line worked out at 8.6 µM; on CFTR it was 3.09 µM.
